Test results from PubChem BioAssay (NCI).
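A five-concentration, 48-hour dose response in 96-well plates underlies each endpoint, interpolated linearly between surrounding concentrations. Here, GI50 denotes the concentration required for 50% inhibition of growth. Definition used: TGI = concentration required for complete inhibition of growth.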

Columns and labels:
Assay in all cases: inhibition of tumour cell growth, NCI panel, 48 h
[1] = tested on: K-562 leukemia
[2] = tested on: A498 renal
[3] = tested on: DU-145 prostate
[4] = tested on: EKVX NSCLC
[5] = tested on: UO-31 renal
[6] = tested on: SF-295 CNS
[7] = tested on: UACC-257 melanoma
[8] = tested on: NCI/ADR-RES ovarian
[9] = tested on: OVCAR-3 ovarian
[10] = tested on: IGROV1 ovarian
[11] = tested on: LOX IMVI melanoma
[12] = tested on: SK-OV-3 ovarian
[13] = tested on: NCI-H226 lung
[14] = tested on: PC-3 prostate
[15] = tested on: OVCAR-5 ovarian
[16] = tested on: SNB-75 CNS
[17] = tested on: COLO 205 colon
[18] = tested on: HCC-2998 colon
[19] = tested on: RXF 393 renal
[20] = tested on: SF-539 CNS
[21] = tested on: HCT-15 colon
[22] = tested on: U251 CNS
[23] = tested on: NCI-H23 lung
[24] = tested on: SK-MEL-2 melanoma
[25] = tested on: HT29 colon
[26] = tested on: HCT-116 colon
[27] = tested on: ACHN renal
[28] = tested on: RPMI-8226 leukemia
[29] = tested on: BT-549 breast
[30] = tested on: MDA-MB-231 breast
[31] = tested on: M14 melanoma
[32] = tested on: OVCAR-8 ovarian
[33] = tested on: SNB-19 CNS
[34] = tested on: HS 578T breast
[35] = tested on: NCI-H460 lung
[36] = tested on: SF-268 CNS
[37] = tested on: CAKI-1 renal
[38] = tested on: HOP-62 NSCLC
[39] = tested on: 786-0 renal
[40] = tested on: SN12C renal
[41] = tested on: TK-10 renal
[42] = tested on: A549 NSCLC
[43] = tested on: MOLT-4 leukemia
[44] = tested on: CCRF-CEM leukemia
[45] = tested on: UACC-62 melanoma
[46] = tested on: MDA-MB-435
[47] = tested on: SW-620 colon
[48] = tested on: NCI-H522 lung
[49] = tested on: HOP-92 NSCLC
[50] = tested on: T-47D breast
[51] = tested on: MALME-3M melanoma
[52] = tested on: MCF7 breast
[53] = tested on: SK-MEL-28 melanoma
[54] = tested on: SK-MEL-5 melanoma
[55] = tested on: KM12 colon
[56] = tested on: HL-60(TB) leukemia
[57] = tested on: OVCAR-4 ovarian

In the case of `O=C(O)[C@@H]1CCCN1Cc1cc2cc3c(cc2c2cc(OCc4ccccc4)ccc12)OCO3`, the GI50 [1] was 28.7 µM, the TGI [1] was greater than 100 µM and the GI50 [2] was 13.5 µM. It also gave a TGI [2] of 45.3 µM, a GI50 [3] of 19.4 µM and a TGI [3] of 65.9 µM. The GI50 [4] was 21.8 µM, the TGI [4] was 61.7 µM and the GI50 [5] was 24.3 µM. It also gave a TGI [5] greater than 100 µM, a GI50 [6] of 18.3 µM and a TGI [6] of 45 µM. The GI50 [7] was 28.9 µM, the TGI [7] was 71.8 µM and the GI50 [8] was 43.9 µM. The TGI [8] was greater than 100 µM, the GI50 [9] was 17.5 µM and the TGI [9] was 43.6 µM. It also gave a GI50 [10] of 24.1 µM, a TGI [10] of 62.6 µM and a GI50 [11] of 17.1 µM. It also gave a TGI [11] of 31.7 µM, a GI50 [12] of 32.4 µM and a TGI [12] of 81.3 µM. It also gave a GI50 [13] of 21.8 µM, a TGI [13] of 50.5 µM and a GI50 [14] of 29.8 µM. For the same compound, the TGI [14] was greater than 100 µM, the GI50 [15] was 21.4 µM and the TGI [15] was 54.9 µM. The GI50 [16] was 21.1 µM, the TGI [16] was 52.4 µM and the GI50 [17] was 14.7 µM. The TGI [17] was 30.6 µM, the GI50 [18] was 36.4 µM and the TGI [18] was greater than 100 µM. The GI50 [19] was 20.6 µM, the TGI [19] was 42.6 µM and the GI50 [20] was 25.1 µM. For the same compound, the TGI [20] was 60.1 µM, the GI50 [21] was 28.5 µM and the TGI [21] was greater than 100 µM. The GI50 [22] was 30.1 µM, the TGI [22] was greater than 100 µM and the GI50 [23] was 38.4 µM. It also gave a TGI [23] greater than 100 µM, a GI50 [24] of 20.1 µM and a TGI [24] of 45.5 µM. For the same compound, the GI50 [25] was 18 µM, the TGI [25] was 37.2 µM and the GI50 [26] was 37.6 µM. For the same compound, the TGI [26] was greater than 100 µM, the GI50 [27] was 26.1 µM and the TGI [27] was 86.6 µM. The GI50 [28] was 17 µM, the TGI [28] was 60.9 µM and the GI50 [29] was 22.6 µM. The TGI [29] was 52.9 µM, the GI50 [30] was 15 µM and the TGI [30] was 42.6 µM. The GI50 [31] was 46.1 µM, the TGI [31] was greater than 100 µM and the GI50 [32] was 30.8 µM. It also gave a TGI [32] greater than 100 µM, a GI50 [33] of 18.5 µM and a TGI [33] of 48.3 µM. For the same compound, the GI50 [34] was 17.6 µM, the TGI [34] was 49.2 µM and the GI50 [35] was 17.8 µM. For the same compound, the TGI [35] was 44.6 µM, the GI50 [36] was 24.4 µM and the TGI [36] was 55.9 µM. It also gave a GI50 [37] of 20.3 µM, a TGI [37] of 53.6 µM and a GI50 [38] of 51.2 µM. For the same compound, the TGI [38] was greater than 100 µM, the GI50 [39] was 55 µM and the TGI [39] was greater than 100 µM. It also gave a GI50 [40] of 23.1 µM, a TGI [40] of 72.7 µM and a GI50 [41] of 27.8 µM. The TGI [41] was 77.7 µM, the GI50 [42] was 27.1 µM and the TGI [42] was greater than 100 µM. The GI50 [43] was 30.7 µM, the TGI [43] was greater than 100 µM and the GI50 [44] was 23.2 µM. For the same compound, the TGI [44] was greater than 100 µM, the GI50 [45] was 16.8 µM and the TGI [45] was 33.2 µM. It also gave a GI50 [46] of 23.4 µM, a TGI [46] of 58.4 µM and a GI50 [47] of 14.1 µM. It also gave a TGI [47] of 54.6 µM, a GI50 [48] of 23.7 µM and a TGI [48] of 58.3 µM. The GI50 [49] was 21.9 µM, the TGI [49] was 63.3 µM and the GI50 [50] was 19.2 µM. It also gave a TGI [50] of 54 µM, a GI50 [51] of 25.8 µM and a TGI [51] of 60.1 µM. For the same compound, the GI50 [52] was 17.2 µM, the TGI [52] was 43.9 µM and the GI50 [53] was 19.4 µM. For the same compound, the TGI [53] was 43.9 µM, the GI50 [54] was 14.7 µM and the TGI [54] was 31.6 µM. For the same compound, the GI50 [55] was 31.8 µM and the TGI [55] was greater than 100 µM.
`CC(C)=NN/C(=N\S(=O)(=O)c1cc2ccccc2s1)Nc1ccc(Cl)cc1` gave a TGI [1] greater than 100 µM, a TGI [3] greater than 100 µM and a TGI [4] of 60.2 µM. For the same compound, the TGI [5] was greater than 100 µM, the TGI [6] was greater than 100 µM and the TGI [7] was greater than 100 µM. For the same compound, the TGI [8] was greater than 100 µM, the TGI [9] was greater than 100 µM and the TGI [10] was greater than 100 µM. It also gave a TGI [11] greater than 100 µM, a TGI [13] greater than 100 µM and a TGI [14] greater than 100 µM. It also gave a TGI [15] greater than 100 µM, a TGI [17] greater than 100 µM and a TGI [21] greater than 100 µM. For the same compound, the TGI [22] was greater than 100 µM, the TGI [23] was greater than 100 µM and the TGI [24] was greater than 100 µM. The TGI [25] was greater than 100 µM, the TGI [26] was greater than 100 µM and the TGI [28] was greater than 100 µM. It also gave a TGI [29] greater than 100 µM, a TGI [30] greater than 100 µM and a TGI [56] greater than 100 µM. It also gave a TGI [31] greater than 100 µM, a TGI [32] greater than 100 µM and a TGI [33] greater than 100 µM. For the same compound, the TGI [34] was greater than 100 µM, the TGI [35] was greater than 100 µM and the TGI [36] was greater than 100 µM. The TGI [37] was greater than 100 µM, the TGI [57] was greater than 100 µM and the TGI [38] was greater than 100 µM. For the same compound, the TGI [39] was greater than 100 µM, the TGI [40] was greater than 100 µM and the TGI [41] was greater than 100 µM. For the same compound, the TGI [42] was greater than 100 µM, the TGI [43] was greater than 100 µM and the TGI [44] was greater than 100 µM. The TGI [45] was greater than 100 µM, the TGI [46] was greater than 100 µM and the TGI [47] was greater than 100 µM. For the same compound, the TGI [48] was greater than 100 µM, the TGI [49] was greater than 100 µM and the TGI [50] was 76.3 µM. For the same compound, the TGI [51] was greater than 100 µM, the TGI [52] was greater than 100 µM and the TGI [53] was greater than 100 µM. For the same compound, the TGI [54] was greater than 100 µM and the TGI [55] was greater than 100 µM.
